Each compound was assayed on drug-induced Sjogren's syndrome-like salivary dysfunction (assay: Test on drug-induced Sjogren's syndrome-like salivary dysfunction in mice). Details: female C57BL/6J mice, DMXAA 20 mg/kg s.c. four times weekly, test compound orally once a day for 8 days; FIGS. 1-3.
Assay type: in vivo
Experimental: Female C57BL/6J mice (8-10-weeks-old) were injected subcutaneously with 20 mg/kg of DMXAA or its vehicle, 5% NaHCO3, four times at weekly intervals. From the day after the last DMXAA challenge, mice were orally administered the test compound or its vehicle once a day for 8 days. On the following day, saliva was collected from mice using a cotton swab under awake conditions, and saliva weight during 15 min was measured and evaluated as an indicator of salivary gland function.

Row | Compound | saliva production (saliva weight during 15 min)
1 | O=C(C#Cc1ccc(-c2ccccc2)c(C(F)(F)F)c1)N1C[C@@H](O)[C@@H](O)C1 [Example 33, 1-[(3R,4S)-3,4-dihydroxypyrrolidin-1-yl]-3-[2-(trifluoromethyl)[1,1′-biphenyl]-4-yl]prop-2-yn-1-one] | significantly improved saliva production
2 | NC(=O)C1CCN(C(=O)C#Cc2ccc(-c3ccccc3)c(C(F)(F)F)c2)CC1 [Example 34, 1-{3-[2-(trifluoromethyl)[1,1′-biphenyl]-4-yl]prop-2-ynoyl}piperidine-4-carboxamide] | significantly improved saliva production
3 | N=S1(=O)CCN(C(=O)C#Cc2ccc(-c3ccccc3)c(C(F)(F)F)c2)CC1 [Example 99, 1-imino-4-{3-[2-(trifluoromethyl)[1,1′-biphenyl]-4-yl]prop-2-ynoyl}-1λ^6-thiomorpholin-1-one] | significantly improved saliva production

From US20250177349A1, “ARYL ALKYNAMIDE DERIVATIVES” (Astellas Pharma, Inc., priority 2022, published 2025)
